From the supplement of paper PMC10331698 come the findings set out here.

± gives the standard deviation of the averaged measurements.

Holding throughout (experiment): level (log10 ratio to DMSO vehicle control); higher = higher biomarker level / cell amount than vehicle control
Common to all, as to details: in DMSO

Compound in experiment [1]: O=C(O)C(F)(F)OC(F)(F)C(F)(F)OC(F)(F)C(=O)O [Perfluoro-3,6-dioxaoctane-1,8-dioic acid]
How it is done: (§1)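 BioMAP Diversity Plus panel of 12 human primary cell co-culture systems (3C, 4H, LPS, SAg, BT, BF4T, BE3C, CASM3C, HDF3CGF, KF3CT, MyoF, Mphg). Compounds were added 1 h before stimulation and left for 24 h (MyoF 48 h; BT 72 h for soluble read-outs or 6 d for IgG). Biomarkers were read by ELISA, cytotoxicity by SRB, PBMC viability and proliferation by Alamar Blue. Each well value was divided by the mean of 8 DMSO control wells on the same plate and log10 transformed; duplicate blinded samples were tested at 4 concentrations.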

Compound in experiment [2]: FC(F)C(F)(F)COCC1CO1 [((2,2,3,3-Tetrafluoropropoxy)methyl)oxirane]
How it is done: as §1

Compound in experiment [3]: O=C(O)C(F)(F)C(F)(F)C(F)(F)C(F)(F)F [Perfluoropentanoic acid]
How it is done: as §1

Compound in experiment [4]: O=C(O)C(F)(F)OC(F)(F)C(F)(F)OC(F)(F)F [Perfluoro-3,6-dioxaheptanoic acid]
How it is done: as §1

Compound in experiment [5]: FC(F)(F)C(F)(F)C(F)(F)C(F)(F)C(F)(F)C(F)(F)C(F)(F)C(F)(F)CCS [2-(Perfluorooctyl)ethanthiol]
How it is done:
as §1

Compound in experiment [6]: O=C(O)C(F)(F)C(F)(F)OC(F)(F)F [Perfluoro-3-methoxypropanoic acid]
As to the method: as §1

Compound in experiment [7]: NC(=O)C(F)(F)C(F)(F)C(F)(F)F [Heptafluorobutyramide]
As to the method:
as §1

BT:sIL-2: the “level (log10)” value is 0.004 ± 0.027 in experiment [1] (6700 nM); -0.017 ± 0.05 in experiment [1] (20000 nM); -0.002 ± 0.041 in experiment [1] (60000 nM); 0.084 ± 0.067 in experiment [2] (6700 nM); -0.005 ± 0.067 in experiment [2] (20000 nM); 0.017 ± 0.13 in experiment [2] (60000 nM). Further, the “level (log10)” value in experiment [3] (6700 nM) is -0.0115 ± 0.17; in experiment [3] (20000 nM) it was 0.0385 ± 0.00071; in experiment [3] (60000 nM) it was 0.0385 ± 0.0078; in experiment [4] (6700 nM), 0.0035 ± 0.053; in experiment [4] (20000 nM), 0.0105 ± 0.11; in experiment [4] (60000 nM), 0.01 ± 0.072. Further, the “level (log10)” value was 0.017 ± 0.016 in experiment [5] (6700 nM); -0.0155 ± 0.071 in experiment [5] (20000 nM); -0.002 ± 0.13 in experiment [6] (6700 nM); -0.0015 ± 0.032 in experiment [6] (20000 nM); 0.016 ± 0.0042 in experiment [6] (60000 nM); 0.068 ± 0.017 in experiment [7] (6700 nM). Also, the “level (log10)” value in experiment [7] (20000 nM) was -0.041 ± 0.059; in experiment [7] (60000 nM), 0.0165 ± 0.0092.

With BT:sIL-6, the “level (log10)” value in experiment [1] (6700 nM) was 0.018 ± 0.013; in experiment [1] (20000 nM), -0.007 ± 0.0042; in experiment [1] (60000 nM), -0.0375 ± 0.00071; in experiment [2] (6700 nM), 0.054 ± 0.051; in experiment [2] (20000 nM) it was 0.0155 ± 0.0064; in experiment [2] (60000 nM), -0.0365 ± 0.005. For the same test system, the “level (log10)” value in experiment [3] (6700 nM) was -0.0355 ± 0.1; in experiment [3] (20000 nM), 0.01 ± 0.051; in experiment [3] (60000 nM), 0.022 ± 0.04; in experiment [4] (6700 nM), 0.021 ± 0.059; in experiment [4] (20000 nM), -0.009 ± 0.059; in experiment [4] (60000 nM), -0.0235 ± 0.064. Further, the “level (log10)” value is 0.011 ± 0.042 in experiment [5] (6700 nM); -0.02 ± 0.041 in experiment [5] (20000 nM); 0.004 ± 0.11 in experiment [6] (6700 nM); 0.0285 ± 0.036 in experiment [6] (20000 nM); -0.0045 ± 0.05 in experiment [6] (60000 nM); 0.0565 ± 0.0078 in experiment [7] (6700 nM). For the same test system, the “level (log10)” value in experiment [7] (20000 nM) was -0.013 ± 0.0071; in experiment [7] (60000 nM) it was -0.0215 ± 0.046.

As for BT:sIL-17A, the “level (log10)” value in experiment [1] (6700 nM) is -0.0535 ± 0.049; in experiment [1] (20000 nM), 0.154 ± 0.19; in experiment [1] (60000 nM), 0.0055 ± 0.047; in experiment [2] (6700 nM) it was 0.0715 ± 0.032; in experiment [2] (20000 nM), -0.008 ± 0.064; in experiment [2] (60000 nM), -0.115 ± 0.03. The “level (log10)” value in experiment [3] (6700 nM) is 0.0585 ± 0.042; in experiment [3] (20000 nM) it was -0.0535 ± 0.0078; in experiment [3] (60000 nM) it was 0.055 ± 0.13; in experiment [4] (6700 nM), -0.0275 ± 0.093; in experiment [4] (20000 nM) it was -0.102 ± 0.26; in experiment [4] (60000 nM), -0.155 ± 0.16. For the same test system, the “level (log10)” value in experiment [5] (6700 nM) is -0.0475 ± 0.022; in experiment [5] (20000 nM), -0.05 ± 0.042; in experiment [6] (6700 nM), 0.035 ± 0.27; in experiment [6] (20000 nM), -0.0495 ± 0.076; in experiment [6] (60000 nM), 0.0575 ± 0.12; in experiment [7] (6700 nM), -0.0055 ± 0.22. Besides, the “level (log10)” value in experiment [7] (20000 nM) was -0.177 ± 0.22; in experiment [7] (60000 nM) it was 0.058 ± 0.082.

For the test system BT:sIL-17F, the “level (log10)” value in experiment [1] (6700 nM) was -0.146 ± 0.0057; in experiment [1] (20000 nM) it was -0.102 ± 0.057; in experiment [1] (60000 nM), -0.0675 ± 0.022; in experiment [2] (6700 nM), -0.0295 ± 0.12; in experiment [2] (20000 nM), 0.001 ± 0.13; in experiment [2] (60000 nM), 0.0005 ± 0.061. For the same test system, the “level (log10)” value was -0.06 ± 0.027 in experiment [3] (6700 nM); -0.0325 ± 0.044 in experiment [3] (20000 nM); 0.0375 ± 0.19 in experiment [3] (60000 nM); -0.0035 ± 0.18 in experiment [4] (6700 nM); -0.033 ± 0.027 in experiment [4] (20000 nM); -0.0495 ± 0.021 in experiment [4] (60000 nM). For the same test system, the “level (log10)” value in experiment [5] (6700 nM) is -0.068 ± 0.055; in experiment [5] (20000 nM), 0.092 ± 0.062; in experiment [6] (6700 nM), -0.161 ± 0.067; in experiment [6] (20000 nM), -0.033 ± 0.052; in experiment [6] (60000 nM), -0.0115 ± 0.011; in experiment [7] (6700 nM), -0.001 ± 0.035. For the same test system, the “level (log10)” value was -0.0165 ± 0.018 in experiment [7] (20000 nM) and -0.006 ± 0.03 in experiment [7] (60000 nM).

As to BT:sTNF-alpha, the “level (log10)” value in experiment [1] (6700 nM) is -0.0245 ± 0.043; in experiment [1] (20000 nM) it was -0.139 ± 0.035; in experiment [1] (60000 nM), -0.019 ± 0.2; in experiment [2] (6700 nM), 0.0865 ± 0.025; in experiment [2] (20000 nM), 0.0615 ± 0.023; in experiment [2] (60000 nM) it was -0.0195 ± 0.0021. Also, the “level (log10)” value in experiment [3] (6700 nM) was -0.0575 ± 0.25; in experiment [3] (20000 nM), 0.0875 ± 0.012; in experiment [3] (60000 nM) it was 0.105 ± 0.04; in experiment [4] (6700 nM) it was 0.0935 ± 0.056; in experiment [4] (20000 nM), 0.0375 ± 0.17; in experiment [4] (60000 nM), 0.0755 ± 0.036. For the same test system, the “level (log10)” value is 0.16 ± 0.015 in experiment [5] (6700 nM); 0.065 ± 0.035 in experiment [5] (20000 nM); 0.055 ± 0.035 in experiment [6] (6700 nM); -0.0805 ± 0.084 in experiment [6] (20000 nM); 0.0205 ± 0.17 in experiment [6] (60000 nM); 0.0705 ± 0.096 in experiment [7] (6700 nM). Also, the “level (log10)” value is -0.057 ± 0.025 in experiment [7] (20000 nM) and -0.0225 ± 0.0035 in experiment [7] (60000 nM).

As to LPS:CCL2/MCP-1, the “level (log10)” value in experiment [1] (6700 nM) is -0.02 ± 0.023; in experiment [1] (20000 nM) it was -0.011 ± 0.021; in experiment [1] (60000 nM) it was 0.0075 ± 0.036; in experiment [2] (6700 nM), 0.006 ± 0.0085; in experiment [2] (20000 nM) it was -0.007 ± 0.0099; in experiment [2] (60000 nM), 0.01 ± 0.013. Further, the “level (log10)” value is 0.0065 ± 0.0064 in experiment [3] (6700 nM); -0.0065 ± 0.00071 in experiment [3] (20000 nM); 0.0225 ± 0.039 in experiment [3] (60000 nM); 0.0005 ± 0.022 in experiment [4] (6700 nM); -0.001 ± 0.04 in experiment [4] (20000 nM); -0.0085 ± 0.025 in experiment [4] (60000 nM). In addition, the “level (log10)” value in experiment [5] (6700 nM) is 0.018; in experiment [5] (20000 nM), 0.026 ± 0.013; in experiment [6] (6700 nM), -0.005 ± 0.0057; in experiment [6] (20000 nM), 0.003 ± 0.0071; in experiment [6] (60000 nM), 0.0055 ± 0.03; in experiment [7] (6700 nM), 0.0255 ± 0.0035. The “level (log10)” value in experiment [7] (20000 nM) turned out to be 0.0105 ± 0.0078; in experiment [7] (60000 nM) it was 0.0275 ± 0.057.

As to LPS:CD40, the “level (log10)” value in experiment [1] (6700 nM) is 0.025 ± 0.0099; in experiment [1] (20000 nM), 0.0195 ± 0.005; in experiment [1] (60000 nM), -0.0175 ± 0.053; in experiment [2] (6700 nM), 0.009; in experiment [2] (20000 nM), -0.006 ± 0.0057; in experiment [2] (60000 nM), -0.012 ± 0.017. The “level (log10)” value was 0.0115 ± 0.011 in experiment [3] (6700 nM); 0.0075 ± 0.022 in experiment [3] (20000 nM); -0.0265 ± 0.013 in experiment [3] (60000 nM); -0.0055 ± 0.012 in experiment [4] (6700 nM); -0.0295 ± 0.039 in experiment [4] (20000 nM); -0.024 ± 0.038 in experiment [4] (60000 nM). For the same test system, the “level (log10)” value was -0.034 ± 0.055 in experiment [5] (6700 nM); -0.0305 ± 0.11 in experiment [5] (20000 nM); 0.0045 ± 0.013 in experiment [6] (6700 nM); 0.0095 ± 0.015 in experiment [6] (20000 nM); 0.0135 ± 0.039 in experiment [6] (60000 nM); 0.0065 ± 0.022 in experiment [7] (6700 nM). In addition, the “level (log10)” value in experiment [7] (20000 nM) was -0.004 ± 0.071; in experiment [7] (60000 nM), 0.001 ± 0.059.
